This note sets out measurements from ChEMBL document CHEMBL1128356, “Antineoplastic agents. 291. Isolation and synthesis of combretastatins A-4, A-5, and A-6(1a)” (1995).

Test [1] concerns Panel (Carcinoma cell lines). Kind of test: In vitro antitumor activity against human tumor cancer cell lines. It is filed as functional.
The test system of test [2] is NCI 60 human tumor cell line panel (Homo sapiens). Kind of test: In vitro inhibitory activity against NCI 60 human tumor cell line panel.

A word on the GI50: it is the concentration at which growth is held to half of that of the control. Higher therefore signals lower sensitivity of the cells. In test [1], `COc1ccc(/C=C\c2cc(OC)c3c(c2)OCO3)cc1O` [Combretastatin A-2] registered a GI50 of 31.6 nM. On to `COc1ccc(/C=C/c2cc(O)c(OC)c(OC)c2)cc1OC`, for which, in test [2], the GI50 was above 100000 nM. On to `COc1ccc(/C=C\c2cc(OC)c(OC)c(OC)c2)cc1O` [COMBRETASTATIN A4], for which growth in test [2] was halved (GI50) at 3.2 nM. For `COc1ccc(/C=C\c2cc(OC)c(OC)c(OC)c2)c(O)c1O` [COMBRETASTATIN A-1], in test [1], the concentration for 50% growth inhibition (GI50) was 16.2 nM. Compound `COc1ccc(/C=C\c2cc(O)c(OC)c(OC)c2)cc1OC` had a concentration for 50% growth inhibition (GI50) in test [2] of 1650 nM.
